The source made the active and inactive calls. The calls are words filed in the database; no cut-off is given here.
Legend:
[1] = tested on: Mus musculus; experiment: Compound was evaluated for reversal of scopolamine-induced memory impairment in mice when administered subcutaneously (1-10 mg/kg); assay type: functional
[2] = Acute toxicity in mice when administered subcutaneously; details: mouse, in vivo, sc
[3] = molecular target: T1, Acetylcholinesterase (Rattus norvegicus, UniProt P37136)
T1 sequence (P37136 whole entry): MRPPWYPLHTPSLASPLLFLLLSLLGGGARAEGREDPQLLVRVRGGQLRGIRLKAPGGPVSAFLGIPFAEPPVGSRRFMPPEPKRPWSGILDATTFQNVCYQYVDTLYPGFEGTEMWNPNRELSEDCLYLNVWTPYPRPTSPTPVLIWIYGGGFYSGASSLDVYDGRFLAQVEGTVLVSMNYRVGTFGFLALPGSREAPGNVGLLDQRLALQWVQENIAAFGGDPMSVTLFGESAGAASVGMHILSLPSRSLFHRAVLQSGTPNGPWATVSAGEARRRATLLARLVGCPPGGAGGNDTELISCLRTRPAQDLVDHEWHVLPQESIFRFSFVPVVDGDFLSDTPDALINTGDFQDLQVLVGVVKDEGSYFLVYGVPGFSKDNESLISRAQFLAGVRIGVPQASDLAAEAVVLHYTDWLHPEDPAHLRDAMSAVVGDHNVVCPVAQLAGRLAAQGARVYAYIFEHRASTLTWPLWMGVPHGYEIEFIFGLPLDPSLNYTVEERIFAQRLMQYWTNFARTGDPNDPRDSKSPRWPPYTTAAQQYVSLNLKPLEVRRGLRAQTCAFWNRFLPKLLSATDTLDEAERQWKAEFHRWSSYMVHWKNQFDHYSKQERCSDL
Description: Inhibition of acetylcholinesterase

[4] = tested on: Mus musculus; experiment: Compound was evaluated for reversal of scopolamine-induced memory impairment in mice when administered subcutaneously; assay type: functional
[5] = tested on: Mus musculus; experiment: Compound was evaluated for reversal of scopolamine-induced memory impairment in mice when administered subcutaneously; Not active (1-10 mg/kg); assay type: functional
[6] = tested on: Mus musculus; experiment: Compound was evaluated for reversal of scopolamine-induced memory impairment in mice when administered subcutaneously (0.31 - 5 mg/kg); assay type: functional; details: route subcutaneous
[7] = tested on: Mus musculus; experiment: Compound was evaluated for reversal of scopolamine-induced memory impairment in mice when administered subcutaneously; Not active (0.16-5 mg/kg); assay type: functional

| Compound | LD50 [2] [mg/kg] | IC50 [3] [µM] | also measured |
| --- | --- | --- | --- |
| Nc1c2c(nc3ccccc13)C[C@H](O)C[C@@H]2O | > 80 | 5.4 | Dose [1]: 1 mg/kg |
| Nc1c2c(nc3ccccc13)[C@H](O)CC[C@@H]2O | > 80 | 4.6 | Dose [4]: 3 mg/kg |
| Nc1c2c(nc3c(O)cccc13)CCCC2O (centres undefined) | > 80 | 25.1 | Dose [5]: 1 mg/kg |
| Nc1c2c(nc3ccccc13)C[C@H](O)C[C@H]2O | > 80 | 14.7 | Dose [1]: 1 mg/kg |
| Nc1c2c(nc3ccccc13)CC[C@H](O)[C@@H]2O | – | > 100 | – |
| Nc1c2c(nc3ccccc13)CC[C@H](O)[C@H]2O | – | > 100 | – |
| Nc1c2c(nc3ccccc13)CCCC2O (centres undefined) [VELNACRINE] | > 80 | 1.3 | Dose [6]: 0.31 mg/kg |
| Nc1c2c(nc3cc(O)ccc13)CCCC2O (centres undefined) | > 80 | 64.4 | Dose [7]: 0.16 mg/kg |
| Nc1c2c(nc3cccc(O)c13)CCCC2O (centres undefined) | > 80 | 27.4 | Dose [5]: 1 mg/kg |
| Nc1c2c(nc3ccc(O)cc13)CCCC2O (centres undefined) | > 80 | 10.6 | Dose [7]: 0.16 mg/kg |
| Nc1c2c(nc3ccccc13)[C@H](O)CC[C@H]2O | > 80 | 62.1 | DOSE [5]: inactive |
